Reference: paper PMC5577610, “Nine New Triterpene Glycosides, Magnumosides A1–A4, B1, B2, C1, C2 and C4, from the Vietnamese Sea Cucumber Neothyonidium (=Massinium) magnum: Structures and Activities against Tumor Cells Independently and in Synergy with Radioactive Irradiation” (Marine Drugs, 2017)
Where a name gives a salt, the structure may show the parent alone.

Columns and labels:
Assay type in all cases: cell-based
mouse erythrocytes = conditions: for Hemolytic action (in words): mouse erythrocytes
Method: The erythrocytes were washed thrice with 0.9% NaCl, centrifuged (450 g) on a centrifuge […] (Heraeus, Hanau, Germany) for 5 min followed by re-suspending in phosphate-buffered saline (PBS), pH 7.2-7.4. […] ED50 was calculated using SigmaPlot 3.02 software (Jandel Scientific, San Rafael, CA, USA). […] The erythrocyte suspension in phosphate-buffered saline, pH 7.2-7.4 (PBS) with 20 μL of the solvent without a tested compound was used as negative control.

[1] = test system: human colorectal adenocarcinoma DLD-1 cells; test: Cytotoxicity against DLD-1 cells (MTS assay); conditions: for IC50: Homo sapiens, DLD-1, read-out: IC50 (50% reduction in cell viability), DLD-1 cells, 24 h, 0–100 µM
Method: (§1) Human colorectal adenocarcinoma cells DLD-1 were cultured in RPMI-1640 medium. Culture media was supplemented with 10% fetal bovine serum (FBS) and penicillin—streptomycin solution. Cells were maintained in a sterile environment and kept in an incubator at 5% CO2 and 37 °C to promote growth. DLD-1 cells were sub-cultured every 3–4 days by their rinsing with phosphate buffered saline (PBS), adding trypsin to detach the cells from the tissue culture flask, and transferring 10–20% of the harvested cells to a new flask containing fresh growth media.
DLD-1 cells (1.0 × 10^4/well) were seeded in 96-well plates for 24 h at 37 °C in 5% CO2 incubator. The cells were treated with the compounds 1–9 at concentrations range from 0 to 100 µM for additional 24 h. Subsequently, cells were incubated with 15 µL MTS reagent for 3 h, and the absorbance of each well was measured at 490/630 nm using microplate reader “Power Wave XS” (Bio Tek, Winooski, VT, USA). All the experiments were repeated three times, and the mean absorbance values were calculated. The results are expressed as the percentage of inhibition that produced a reduction in absorbance by compound’s treatment compared to the non-treated cells (control).

[2] = Cytotoxic activity (MTT) against the ascites form of mouse Ehrlich carcinoma cells; conditions: mouse
Method: (§2) The spleenocytes from CD-1 line mice were used. The spleen was isolated from mice and homogenized. The spleenocytes were washed thrice and resuspended with RPMI-1640 medium contained gentamicine 8 μg/mL (Biolot, Saint Petersburg, Russia). The museum tetraploid strain of murine ascites Ehrlich carcinoma cells from the All-Russian cancer center RAMS (Moscow, Russia) was used. The cells of the ascites Ehrlich carcinoma were separated from ascites, which were collected on day 7 after inoculation in mouse CD-1 line. The cells were washed of ascites thrice and then resuspended in liquid media DMEM with L-Glutamine (Biolot, Saint Petersburg, Russia).
(§3) The solutions of tested substances in different concentrations (20 µL) and cell suspension (200 µL) were added in wells of 96-well plate and incubated over night at 37 °C and 5% CO2. After incubation the cells were sedimented by centrifugation, 200 µL of medium from each well were collected and 100 µL of pure medium were added. Then 10 µL of MTT solution […] (Sigma, St. Louis, MO, USA) were added in each well. Plate was incubated 4 h, after that 100 µL SDS-HCl were added to each well and plate was incubated at 37 °C 4–18 h. Optical density was measured at 570 nm and 630–690 nm. The activity of the substances was calculated as the ratio of the dead cells to general cells amount (ED50). Typicoside A1 [28] and cucumarioside A2-2 [11] were used as positive controls.

[3] = Cytotoxic activity (MTT) against mouse spleenocytes; conditions: CD-1, mouse
Method: as §2, §3

[4] = test system: human colorectal adenocarcinoma DLD-1 cells; test: Soft agar assay, colony formation of DLD-1 cells; conditions: 14 days
Method: as §1
DLD-1 cells (8.0 × 10^3) were seeded in 6-well plate and treated with the 3, 7–9 (10 µM) in 1 mL of 0.3% Basal Medium Eagle (BME) agar containing 10% FBS, 2 mM L-glutamine, and 25 µg/mL gentamicin. The cultures were maintained at 37 °C in a 5% CO2 incubator for 14 days, and the cell’s colonies were scored using a microscope “Motic AE 20” (Scientific Instrument Company, Campbell, CA, USA) and the Motic Image Plus computer program (Scientific Instrument Company, Campbell, CA, USA).

Compound | Hemolytic action (in words) (mouse erythrocytes) | Cytotoxic effect against DLD-1 cells (in words) ([1]; 0–100 µM, 24 h) | IC50 [1] | IC50 [2] | IC50 [3] | Reduction of colonies size ([4]; 10 µM) | inhibition at 10 µM ([4]; Homo sapiens, DLD-1, 336 h, read-out: Inhibition of spontaneous colony formation (number of colonies)) | Hemolysis of cells (mouse erythrocytes; concentration 1%, positive control)
C=C(C)C(O)CCC(C)(O)C1C2CC3(C)C4=CCC5C(C)(C)C(OC6OCC(OS(=O)(=O)O)C(O)C6OC6OC(C)C(O)C(O)C6O)CCC5(C)C4CCC13C(=O)O2 [Compound 2, 3β-O-[β-D-quinovopyranosyl-(1→2)-4-O-sodium sulfate-β-D-xylopyranosyl]-9βH,20(S),24(S)-dihydroxylanosta-7,25-diene-18(16)-lactone] | moderate hemolytic activity | did not possessed cytotoxic effect | > 100 µM | > 100 µM | 94.2 ± 1.18 µM | – | – | –
CC(C)=CCCC(C)(O)C1C2CC3(C)C4=CCC5C(C)(C)C(OC6OCC(OS(=O)(=O)O)C(O)C6OC6OC(C)C(O)C(O)C6O)CCC5(C)C4CCC13C(=O)O2 [Compound 4, 3β-O-[β-D-quinovopyranosyl-(1→2)-4-O-sodium sulfate-β-D-xylopyranosyl]-9βH,20(S)-hydroxylanosta-7,24-diene-18(16)-lactone] | – | – | > 100 µM | 28.4 ± 0.42 µM | 37.6 µM | – | – | –
COC1C(O)C(CO)OC(OC2COC(OC3C(C)OC(OC4C(OC5CCC6(C)C7CCC89C(=O)OC(CC8(C)C7=CCC6C5(C)C)C9C(C)(O)CC=CC(C)(C)O)OCC(OS(=O)(=O)O)C4O)C(O)C3O)C(O)C2O)C1O [Compound 5, 3β-O-[3-O-methyl-β-D-glucopyranosyl-(1→3)-β-D-xylopyranosyl-(1→4)-β-D-quinovopyranosyl-(1→2)-4-O-sodium sulfate-β-D-xylopyranosyl]-9βH,20(S),25-dihydroxylanosta-7,23E-diene-18(16)-lactone] | moderate hemolytic activity | – | > 100 µM | > 100 µM | > 100 µM | – | – | –
C=C(C)C(O)CCC(C)(O)C1C2CC3(C)C4=CCC5C(C)(C)C(OC6OCC(OS(=O)(=O)O)C(O)C6OC6OC(C)C(OC7OCC(OC8OC(CO)C(O)C(OC)C8O)C(O)C7O)C(O)C6O)CCC5(C)C4CCC13C(=O)O2 [Compound 6, 3β-O-[3-O-methyl-β-D-glucopyranosyl-(1→3)-β-D-xylopyranosyl-(1→4)-β-D-quinovopyranosyl-(1→2)-4-O-sodium sulfate-β-D-xylopyranosyl]-9βH,20(S),24(S)-dihydroxylanosta-7,25-diene-18(16)-lactone] | moderate hemolytic activity | – | > 100 µM | > 100 µM | > 100 µM | – | – | –
COC1C(O)C(COS(=O)(=O)O)OC(OC2COC(OC3C(C)OC(OC4C(OC5CCC6(C)C7CCC89C(=O)OC(CC8(C)C7=CCC6C5(C)C)C9C(C)(O)CC=CC(C)(C)O)OCC(OS(=O)(=O)O)C4O)C(O)C3O)C(O)C2O)C1O [Compound 7, 3β-O-[6-O-sodium sulfate-3-O-methyl-β-D-glucopyranosyl-(1→3)-β-D-xylopyranosyl-(1→4)-β-D-quinovopyranosyl-(1→2)-4-O-sodium sulfate-β-D-xylopyranosyl]-9βH,20(S),25-dihydroxylanosta-7,23E-diene-18(16)-lactone] | significant effects | – | 32.9 µM | 18.7 µM | 8.97 ± 0.04 µM | 43% | 26% | –
Triton X-100 [reference compound] | – | – | – | – | – | – | – | 100%
